Experimental data from ChEMBL document CHEMBL3774388, “Synthesis and anti-cancer activity evaluation of 5-(2-carboxyethenyl)-isatin derivatives” (Eur J Med Chem, 2016).
pIC50: −log10 of the molar value. Active and inactive are the calls of the source. The rule behind the calls is not given here.

Key:
Jurkat [1] = experiment: Anticancer activity against human Jurkat cells after 48 hrs by MTT assay; type: functional, cell-based
A498 = experiment: Anticancer activity against human A498 cells after 48 hrs by MTT assay; type: functional, cell-based; settings: A498, 48 h
Jurkat [2] = experiment: Induction of apoptosis in human Jurkat cells assessed as viable cells at 30 nM after 12 hrs by Annexin-V-FITC/PI-staining based flow cytometric analysis (reference value: 99.1%); type: functional; settings: read-out: Activity
HEK293 = experiment: Cytotoxicity against HEK293 cells after 48 hrs by MTT assay; type: cell-based; settings: Homo sapiens, HEK293, 48 h
[3] = Anticancer activity against human BT474 cells after 48 hrs by MTT assay; type: functional, cell-based; settings: BT-474, 48 h
Jurkat [4] = experiment: Induction of apoptosis in human Jurkat cells assessed as late apoptotic cells at 10 nM after 12 hrs by Annexin-V-FITC/PI-staining based flow cytometric analysis relative to control; type: functional
Jurkat [5] = experiment: Induction of apoptosis in human Jurkat cells assessed as increase in cells with reduction in mitochondrial membrane potential at 30 nM after 24 hrs by TMRM-staining based flow cytometric analysis ( Rvb = 7.8%); type: functional; design: scale not given: the % may be the effect or the level left
Jurkat [6] = experiment: Induction of apoptosis in human Jurkat cells assessed as early apoptotic cells at 10 nM after 12 hrs by Annexin-V-FITC/PI-staining based flow cytometric analysis relative to control; type: functional
Jurkat [7] = experiment: Induction of apoptosis in human Jurkat cells assessed as early apoptotic cells at 30 nM after 12 hrs by Annexin-V-FITC/PI-staining based flow cytometric analysis relative to control; type: functional
Jurkat [8] = experiment: Induction of apoptosis in human Jurkat cells assessed as necrotic cells at 30 nM after 12 hrs by Annexin-V-FITC/PI-staining based flow cytometric analysis (reference value: 0.8%); type: functional
Jurkat [9] = experiment: Induction of apoptosis in human Jurkat cells at 10 to 30 nM by Annexin-V-FITC/PI-staining based flow cytometric analysis; type: functional, cell-based; settings: TDE = time-dependent effect
[10] = Anticancer activity against human BT549 cells after 48 hrs by MTT assay; type: functional, cell-based; settings: BT-549, 48 h
[11] = Anticancer activity against human SKOV3 cells after 48 hrs by MTT assay; type: functional, cell-based; settings: SK-OV-3, 48 h
A549 = experiment: Anticancer activity against human A549 cells after 48 hrs by MTT assay; type: functional, cell-based; settings: A549, 48 h
Jurkat [12] = experiment: Induction of apoptosis in human Jurkat cells assessed as viable cells at 10 nM after 12 hrs by Annexin-V-FITC/PI-staining based flow cytometric analysis (reference value: 99.1%); type: functional; settings: read-out: Activity
NCI-H1299 = experiment: Anticancer activity against human NCI-H1299 cells after 48 hrs by MTT assay; type: functional, cell-based; settings: NCI-H1299, 48 h
Jurkat [13] = experiment: Induction of apoptosis in human Jurkat cells assessed as induction of cell shrinkage and blebbing at 10 and 30 nM incubated for 12 hrs by phase contrast microscopy; type: functional, cell-based
HUVEC = experiment: Cytotoxicity against HUVEC cells after 48 hrs by MTT assay; type: cell-based; settings: Homo sapiens
[14] = Anticancer activity against human DU145 cells after 48 hrs by MTT assay; type: functional, cell-based; settings: DU-145, 48 h
Jurkat [15] = experiment: Induction of apoptosis in human Jurkat cells assessed as increase in cells with reduction in mitochondrial membrane potential at 30 nM after 48 hrs by TMRM-staining based flow cytometric analysis ( Rvb = 7.8%); type: functional; design: scale not given: the % may be the effect or the level left
[16] = Anticancer activity against human HCT116 cells after 48 hrs by MTT assay; type: functional, cell-based; settings: HCT-116, 48 h
Jurkat [17] = experiment: Induction of apoptosis in human Jurkat cells assessed as late apoptotic cells at 30 nM after 12 hrs by Annexin-V-FITC/PI-staining based flow cytometric analysis relative to control; type: functional
MCF7 = experiment: Anticancer activity against human MCF7 cells after 48 hrs by MTT assay; type: functional, cell-based; settings: MCF7, 48 h
Jurkat [18] = experiment: Induction of apoptosis in human Jurkat cells using Z-DEVD-R110 as substrate assessed as caspase3 activation at 30 nM incubated for 18 hrs measured at 48 hrs by fluorescence analysis; type: functional, cell-based
HeLa = experiment: Anticancer activity against human HeLa cells after 48 hrs by MTT assay; type: functional, cell-based
Jurkat [19] = experiment: Induction of apoptosis in human Jurkat cells assessed as necrotic cells at 10 nM after 12 hrs by Annexin-V-FITC/PI-staining based flow cytometric analysis (reference value: 0.8%); type: functional

## COc1ccc(CN2C(=O)C(=O)c3cc(/C=C/C(N)=O)ccc32)cc1
Jurkat [1]
  pIC50: 5.79

## COc1ccc(CN2C(=O)C(=O)c3cc(/C=C/C(=O)OC(C)(C)C)ccc32)cc1
Jurkat [1]
  pIC50: 6.51

## CC[C@@]1(O)C(=O)OCc2c1cc1n(c2=O)Cc2cc3ccccc3nc2-1 [CAMPTOTHECIN]
Jurkat [1]
  pIC50: 7.07

## O=C1Nc2ccc(F)cc2C1=O [5-FLUOROISATIN]
Jurkat [1]
  pIC50: < 5.00

## CCCCOC(=O)/C=C/c1ccc2c(c1)C(=O)C(=O)N2Cc1ccc(OC)cc1
Jurkat [1]
  pIC50: 6.66

## COC(=O)/C=C/c1cccc2c1C(=O)C(=O)N2Cc1ccc(OC)cc1
Jurkat [1]
  pIC50: 6.10

## COC(=O)/C=C/c1ccc2c(c1)C(=O)C(=O)N2Cc1ccc(C(F)(F)F)cc1
Jurkat [1]
  pIC50: 6.44

## COC(=O)/C=C/c1ccc2c(c1)C(=O)C(=O)N2Cc1ccccc1
Jurkat [1]
  pIC50: 7.15

## COC(=O)/C=C/c1ccc2c(c1)C(=O)C(=O)N2Cc1ccc(Cl)c(Cl)c1
Jurkat [1]
  pIC50: 6.07

## O=C(/C=C/c1ccc2c(c1)C(=O)C(=O)N2Cc1ccc(Br)cc1)OCCO
Jurkat [1]
  pIC50: 6.40

## COC(=O)/C=C/c1ccc2c(c1)C(=O)C(=O)N2Cc1ccc(F)cc1
Jurkat [1]
  pIC50: 6.42

## O=C1C(=O)N(Cc2ccc(Br)cc2)c2ccc(/C=C/C(=O)N3CCOCC3)cc21
Jurkat [1]
  pIC50: 5.84

## Cc1ccc2c(c1)C(=O)C(=O)N2
Jurkat [1]
  pIC50: < 5.00

## O=C1Nc2ccc(Br)cc2C1=O
Jurkat [1]
  pIC50: < 5.00

## CCCCc1ccc2c(c1)C(=O)C(=O)N2
Jurkat [1]
  pIC50: < 5.00

## O=C1Nc2ccc(Cl)cc2C1=O
Jurkat [1]
  pIC50: < 5.00

## COc1ccc(CN2C(=O)C(=O)c3cc(/C=C/C(=O)OCCO)ccc32)cc1
Jurkat [1]
  pIC50: 6.30

## CCOC(=O)/C=C/c1ccc2c(c1)C(=O)C(=O)N2Cc1ccc(OC)cc1
Jurkat [1]
  pIC50: 7.52

## CC(C)(C)OC(=O)/C=C/c1ccc2c(c1)C(=O)C(=O)N2Cc1ccc(Br)cc1
Jurkat [1]
  pIC50: 5.98

## COC(=O)/C=C/c1ccc2c(c1)C(=O)C(=O)N2Cc1ccc(C)cc1
Jurkat [1]
  pIC50: 7.30

## NC(=O)/C=C/c1ccc2c(c1)C(=O)C(=O)N2Cc1ccc(Br)cc1
Jurkat [1]
  pIC50: 5.63

## COC(=O)/C=C/c1ccc2c(c1)C(=O)C(=O)N2Cc1ccc(Cl)cc1
Jurkat [1]
  pIC50: 6.59

## COC(=O)/C=C/c1ccc2c(c1)C(=O)C(=O)N2Cc1cccc(Br)c1
Jurkat [1]
  pIC50: 6.92

## COC(=O)/C=C/c1ccc2c(c1)/C(=N/O)C(=O)N2Cc1ccc(Br)cc1
Jurkat [1]
  pIC50: 5.23

## CCCCOC(=O)/C=C/c1ccc2c(c1)C(=O)C(=O)N2Cc1ccc(Br)cc1
Jurkat [1]
  pIC50: 6.15

## COC(=O)/C=C/c1ccc2c(c1)CC(=O)N2Cc1ccc(OC)cc1
Jurkat [1]
  pIC50: < 5.00

## COC(=O)/C=C/c1ccc2c(c1)C(=O)C(=O)N2Cc1ccc(C#N)cc1
Jurkat [1]
  pIC50: 7.10

## COc1ccc(CN2C(=O)C(=O)c3cc(/C=C/C(=O)N4CCOCC4)ccc32)cc1
Jurkat [1]
  pIC50: 5.34

## CCN1C(=O)C(=O)c2cc(/C=C/C(=O)OC)ccc21
Jurkat [1]
  pIC50: 6.70

## COC(=O)/C=C/c1ccc2c(c1)/C(=N/O)C(=O)N2Cc1ccc(OC)cc1
Jurkat [1]
  pIC50: 5.04

## O=C1Nc2ccccc2C1=O [ISATIN]
Jurkat [1]
  pIC50: < 5.00

## COC(=O)/C=C/c1ccc2c(c1)C(=O)C(=O)N2Cc1ccccc1Br
Jurkat [1]
  pIC50: 6.10

## COC(=O)/C=C/c1ccc2c(c1)C(=O)C(=O)N2Cc1ccc2ccccc2c1
Jurkat [1]
  pIC50: 6.19

## COC(=O)/C=C/c1ccc2c(c1)C(=O)C(=O)N2
Jurkat [1]
  pIC50: 6.70

## COC(=O)/C=C/c1ccc2c(c1)C(=O)C(=O)N2Cc1ccc(OC)cc1
A498
  pIC50: 5.28
Jurkat [2]
  viability at 0.03 µM: 56.1%
HEK293
  pIC50: < 5.00
[3]
  pIC50: 5.23
Jurkat [4]
  Activity: 7.2%
Jurkat [5]
  Activity: 32%
Jurkat [6]
  Activity: 28.5%
Jurkat [7]
  Activity: 35.5%
Jurkat [8]
  Activity: 1.9%
Jurkat [9]
  Activity: tde
[10]
  pIC50: 7.15
[11]
  pIC50: < 5.00
A549
  pIC50: < 5.00
Jurkat [12]
  viability at 0.01 µM: 62.5%
NCI-H1299
  pIC50: 7.52
Jurkat [13]
  Activity: Active
Jurkat [1]
  pIC50: 7.52
HUVEC
  pIC50: < 5.00
[14]
  pIC50: < 5.00
Jurkat [15]
  Activity: 81.9%
[16]
  pIC50: 7.40
Jurkat [17]
  Activity: 6.5%
MCF7
  pIC50: 7.10
Jurkat [18]
  Activity: Active
HeLa
  pIC50: 5.04
Jurkat [19]
  Activity: 1.8%

## COC(=O)/C=C/c1ccc2c(c1)C1(OCCO1)C(=O)N2Cc1ccc(OC)cc1
Jurkat [1]
  pIC50: < 5.00

## COC(=O)/C=C/c1ccc2c(c1)C(=O)C(=O)N2Cc1cc(C)cc(C)c1
Jurkat [1]
  pIC50: 6.21

## COC(=O)/C=C/c1ccc2c(c1)C(O)C(=O)N2Cc1ccc(OC)cc1 (stereo unspecified)
Jurkat [1]
  pIC50: 7.52

## COc1ccc2c(c1)C(=O)C(=O)N2 [5-METHOXYISATIN]
Jurkat [1]
  pIC50: < 5.00

## COC(=O)/C=C/c1cccc2c1N(Cc1ccc(OC)cc1)C(=O)C2=O
Jurkat [1]
  pIC50: < 5.00

## COc1ccc(CN2C(=O)C(=O)c3cc(/C=C/C(=O)N4CCCC4)ccc32)cc1
Jurkat [1]
  pIC50: 5.65

## COC(=O)/C=C/c1ccc2c(c1)C(=O)C(=O)N2C
Jurkat [1]
  pIC50: 6.60

## COC(=O)/C=C/c1ccc2c(c1)N(Cc1ccc(OC)cc1)C(=O)C2=O
Jurkat [1]
  pIC50: 5.51

## COC(=O)/C=C/c1ccc2c(c1)CC(=O)N2Cc1ccc(Br)cc1
Jurkat [1]
  pIC50: < 5.00

## O=C1C(=O)N(Cc2ccc(Br)cc2)c2ccc(/C=C/C(=O)N3CCCC3)cc21
Jurkat [1]
  pIC50: 5.50

## COC(=O)/C=C/c1ccc2c(c1)C(=O)C(=O)N2Cc1ccc(Br)cc1
Jurkat [1]
  pIC50: 7.22

## COC(=O)/C=C/c1ccc2c(c1)C(=O)C(=O)N2CCOc1ccccc1
Jurkat [1]
  pIC50: 6.70

## COc1ccc(CN2C(=O)C(=O)c3cc(/C=C/C(=O)O)ccc32)cc1
Jurkat [1]
  pIC50: < 5.00

## CCOC(=O)/C=C/c1ccc2c(c1)C(=O)C(=O)N2Cc1ccc(Br)cc1
Jurkat [1]
  pIC50: 7.15

## COC(=O)/C=C/c1ccc2c(c1)C1(OCCO1)C(=O)N2Cc1ccc(Br)cc1
Jurkat [1]
  pIC50: < 5.00

## COC(=O)/C=C/c1ccc2c(c1)C(O)C(=O)N2Cc1ccc(Br)cc1 (stereo unspecified)
Jurkat [1]
  pIC50: 5.91
